Results from publication PMC6918687, “Pharmacological inhibition of TAK1, with the selective inhibitor takinib, alleviates clinical manifestation of arthritis in CIA mice” (Arthritis Research & Therapy, 2019).
Read-outs that look alike come from different tables or passages of the source.

Legend:
[1] = Pharmacokinetics of takinib by LC-MS in plasma and tissues; format: in vivo, C3-tag mice; conditions: C3 tagged mice; for half-life: C3-tag, mouse, ip
Procedure: C3-tag mice were injected intraperitoneally (i.p.) with 50/75mpk takinib and sacrificed at 0, 1 h, 2 h, 4 h, 8 h, 16 h, and 24 h. At the indicated time points, the heart, spleen, kidney, liver, tumor, blood, plasma, muscle, and lung were harvested. All samples were frozen and stored at − 80 °C. Before quantifying the takinib in serum, a standard curve was constructed using HS-219, a close structural analog of takinib that serves as an internal standard. This internal standard solution was used for tissue homogenization. LC-MS analysis was performed at the Duke Proteomics and Metabolomics Core Facility. The final concentration of takinib in the plasma was calculated per milliliter of plasma.
GraphPad Prism 7 was used for statistical analysis of clinical score comparisons, histological analysis, and plasma concentrations. Two-way ANOVA followed by Dunnett’s multiple comparison test was performed for mean clinical score sum (Fig. 1); weight change over time (Fig. 1); joint score sum for all joints, knees, and forepaw and hind paw (Figs. 2, 3); protein analysis (Figs. 5, 6); and cell survival (Fig. 6g). A linear regression of LC-MS data on takinib was used for PK studies. T½ was determined by non-linear one-phase decay curves. Student T tests were performed for periosteal bone width (Additional file 1: Figure S2) and cell survival (Fig. 6f, g). An alpha of 0.05 was used for all statistical analysis.

RA-FLS cells [2] = assay: Cell viability assay (Cell Titer Glo 2.0) in RA-FLS cells; format: cell-based
Procedure: RA-FLS cells were cultured and treated as previously described. Briefly, cells were plated at 80% confluency ~ 10^4 in 96-well plates and treated with either takinib at various concentrations or takinib + TNF (30 ng/mL) for 24 or 48 h and compared to vehicle-treated samples. Cell death was quantified using Cell Titer Glo 2.0 (Promega) according to the manufacturer’s protocol.

CIA mice = assay: Type II collagen-induced arthritis (CIA) mouse model: clinical arthritis score and body weight; format: in vivo, DBA/1 mice; conditions: for % Inhibition from Vehicle Disease (clinical score AUC): day 36
Procedure: The DBA/1 CIA model was conducted in accordance with The Guide for the Care & Use of Laboratory Animals (8th Edition) and therefore in accordance with all Bolder BioPATH IACUC approved policies and procedures. The Bolder Biopath IACUC approved a “blanket” IACUC protocol for this specific working protocol (BBP-001). No acceptable alternative test systems were identified for the animals used in this study. […] Clinical evaluation was performed under experimenter blinded conditions.
Collagen was prepared as a 4 mg/ml solution in 0.01 N acetic acid. Equal volumes of 4 mg/ml collagen and 5 mg/ml Freund’s complete adjuvant were emulsified by hand mixing with syringes for approximately 5 min, at which point a bead of this material holds its form when placed in water. On study days 0 and 21, animals were anesthetized with isoflurane and given intradermal injections of a total of 400 μg of type II collagen in Freund’s complete adjuvant at the base of the tail.
Mice were randomized by body weight into treatment groups on study day 18. Treatment was initiated following enrollment. On study day 36, the mice were euthanized for necropsy. Clinical scores were given for each of the paws (right front, left front, right rear, left rear) on study days 18–36. Experimenter was blinded from the treatment group during clinical evaluation and scoring.

RA-FLS cells [3] = assay: Phospho-kinase proteome array, TNF-stimulated RA-FLS cells; format: cell-based, human; conditions: takinib 10 μM, TNF 30 ng/mL 30 min
Procedure: (§1) Rheumatoid arthritis fibroblast-like synoviocytes (RA-FLS) cells were prepared from surgical synovial samples at the University of Michigan as previously described. Cells were isolated from 4 individual patients (3 female, 1 male) and passaged no more than 2 times before use. Cells were cultured in CRML media, 10% FBS, 1% penicillin-streptomycin (PS), and 1% glutamate.
(§2) Briefly, 10^6 cells were plated and either no treatment (naïve) or pretreated with takinib (10 μM) or vehicle (DMSO) for 30 min prior to stimulation with TNF (30 ng/mL) for 30 min at 37 °C in 5% CO2 for phospho-kinase assay (R&D Systems). NF-κB and cytokine assays were performed as previously described; however, cells were incubated for 24 h post-TNF (30 ng/mL) or LPS (10 ng/mL) stimulation.

RA-FLS cells [4] = assay: Cytokine/chemokine proteome array, TNF-stimulated RA-FLS cells; format: cell-based, human; conditions: takinib 10 μM, TNF 30 ng/mL 24 h
Procedure: as §1
RA-FLS cells were activated by addition of LPS 10 ng/mL in the presence or absence of 10 μM takinib or DMSO. Twenty-four hours after treatment, supernatant was added to Human Cytokine proteome array (R&D Systems). Cytokine kit was conducted in accordance with manufacturer protocol. Chemiluminescence was used to visualize protein quantities.
as §2

half-life ([1]; heart, 50 mg/kg, 50 mpk i.p., read-out: half-life, heart (converted)): 16 min | half-life ([1]; heart, 75 mg/kg, 75 mpk i.p., read-out: half-life, heart (converted)): 14.4 min | half-life ([1]; muscle, 50 mg/kg, 50 mpk i.p., read-out: half-life, muscle (converted)): 8.82 min | half-life ([1]; muscle, 75 mg/kg, 75 mpk i.p., read-out: half-life, muscle (converted)): 5.64 min | half-life ([1]; plasma, 50 mg/kg, 50 mpk i.p., read-out: half-life, plasma (converted)): 15.4 min | half-life ([1]; plasma, 75 mg/kg, 50 or 75 mg/kg i.p., read-out: plasma (serum) clearance t½): 21 min | half-life ([1]; plasma, 75 mg/kg, 75 mpk i.p., read-out: half-life, plasma (converted)): 28.2 min | half-life ([1]; spleen, 50 mg/kg, 50 mpk i.p., read-out: half-life, spleen (converted)): 279 min | half-life ([1]; tumor, 50 mg/kg, 50 mpk i.p., read-out: half-life, tumor (converted)): 22.1 min | half-life ([1]; tumor, 75 mg/kg, 75 mpk i.p., read-out: half-life, tumor (converted)): 9.94 min | half-life, spleen ([1]; 50 mpk i.p., 50 mg/kg): 277.6 min
SMILES: CCCn1/c(=N/C(=O)c2cccc(C(N)=O)c2)[nH]c2ccccc21 [takinib]
cell death vs vehicle control (RA-FLS cells [2]; 10 μM takinib alone, 48 h, p < 0.002): significant amount of cell death | cytotoxicity in the presence of TNF (RA-FLS cells [2]; takinib at varying doses + TNF 30 ng/mL, 24 and 48 h): Minimal cytotoxicity | % Inhibition from Vehicle Disease (clinical score AUC) (CIA mice; CIA DBA/1 mice, takinib 50 mg/kg i.p. daily): 32% | % Inhibition from Vehicle Disease (clinical score AUC) (CIA mice; CIA DBA/1 mice, takinib 50 mg/kg i.p. daily, listed as Takinib): 32% (p=0.08) | Mean Clinical Arthritic Score (AUC) (CIA mice; CIA DBA/1 mice, takinib 50 mg/kg i.p. daily, evaluated at day 36): 14.19 | less overall body weight loss compared to vehicle control (CIA mice; CIA mice, 50 mg/kg i.p. daily, at termination of the study, p = 0.009): 50% | mean daily clinical arthritis scores vs vehicle disease control (CIA mice; CIA mice, 50 mg/kg i.p. daily, days 30–36): significantly differed | AMPKα1 phosphorylation, array signal, Mean (RA-FLS cells [3]; n=4): 111.9564 | AMPKα2 phosphorylation, array signal, Mean (RA-FLS cells [3]; n=4): 187.6195 | Akt 1/2/3 (pS473) array signal, Mean (RA-FLS cells [3]; n=4): 39.51 | Akt 1/2/3 (pT308) array signal, Mean (RA-FLS cells [3]; n=4): 122.7503 | CREB phosphorylation, array signal, Mean (RA-FLS cells [3]; n=4): 232.3464 | Chk-2 phosphorylation, array signal, Mean (RA-FLS cells [3]; n=4): 86.85 | EGF R phosphorylation, array signal, Mean (RA-FLS cells [3]; n=4): 60.59 | ERK1/2 phosphorylation, array signal, Mean (RA-FLS cells [3]; n=4): 95.02 | FAK phosphorylation, array signal, Mean (RA-FLS cells [3]; n=4): 142.7814 | Fgr phosphorylation, array signal, Mean (RA-FLS cells [3]; n=4): 41.73 | Fyn phosphorylation, array signal, Mean (RA-FLS cells [3]; n=4): 78.9 | GSK-3α/β phosphorylation, array signal, Mean (RA-FLS cells [3]; n=4): 191.6206 | HSP27 phosphorylation, array signal, Mean (RA-FLS cells [3]; n=4): 202.916 | HSP60 array signal, Mean (RA-FLS cells [3]; n=4): 40.313 | Hck phosphorylation, array signal, Mean (RA-FLS cells [3]; n=4): 119.1771 | JNK 1/2/3 phosphorylation, array signal, Mean (RA-FLS cells [3]; n=4): 100.6526 | Lck phosphorylation, array signal, Mean (RA-FLS cells [3]; n=4): 44.393 | Lyn phosphorylation, array signal, Mean (RA-FLS cells [3]; n=4): 69.34 | MSK1/2 phosphorylation, array signal, Mean (RA-FLS cells [3]; n=4): 239.7188 | PDGF Rβ phosphorylation, array signal, Mean (RA-FLS cells [3]; n=4): 50.4425 | PLC-γ1 phosphorylation, array signal, Mean (RA-FLS cells [3]; n=4): 34.4325 | PRAS40 phosphorylation, array signal, Mean (RA-FLS cells [3]; n=4): 244.5596 | PYK2 phosphorylation, array signal, Mean (RA-FLS cells [3]; n=4): 87.75 | RSK1/2/3 phosphorylation, array signal, Mean (RA-FLS cells [3]; n=4): 168.3928 | STAT2 phosphorylation, array signal, Mean (RA-FLS cells [3]; n=4): 200.5311 | STAT3 (pS727) array signal, Mean (RA-FLS cells [3]; n=4): 95.82 | STAT3 (pY705) array signal, Mean (RA-FLS cells [3]; n=4): 85.93 | STAT5a phosphorylation, array signal, Mean (RA-FLS cells [3]; n=4): 99.7 | STAT5a/b phosphorylation, array signal, Mean (RA-FLS cells [3]; n=4): 146.267 | STAT5b phosphorylation, array signal, Mean (RA-FLS cells [3]; n=4): 154.004 | STAT66 phosphorylation, array signal, Mean (RA-FLS cells [3]; n=4): 147.8809 | Src phosphorylation, array signal, Mean (RA-FLS cells [3]; n=4): 176.3574 | TOR phosphorylation, array signal, Mean (RA-FLS cells [3]; n=4): 129.6068 | WNK1 phosphorylation, array signal, Mean (RA-FLS cells [3]; n=4): 218.9865 | Yes phosphorylation, array signal, Mean (RA-FLS cells [3]; n=4): 124.3601 | c-Jun phosphorylation, array signal, Mean (RA-FLS cells [3]; n=4): 196.6019 | eNOS phosphorylation, array signal, Mean (RA-FLS cells [3]; n=4): 41.6005 | p27 phosphorylation, array signal, Mean (RA-FLS cells [3]; n=4): 40.56 | p38α phosphorylation, array signal, Mean (RA-FLS cells [3]; n=4): 59.41 | p53 (pS15) array signal, Mean (RA-FLS cells [3]; n=4): 47.48 | p53 (pS46) array signal, Mean (RA-FLS cells [3]; n=4): 126.377 | p53 (pS392) array signal, Mean (RA-FLS cells [3]; n=4): 83.6435 | p70 S6 Kinase (T389) array signal, Mean (RA-FLS cells [3]; n=4): 78.65 | p70 S6 Kinase (site not given) array signal, Mean (RA-FLS cells [3]; n=4): 110.3643 | β-Catenin array signal, Mean (RA-FLS cells [3]; n=4): 57.16 | number of human kinases with significantly reduced phosphorylation (RA-FLS cells [3]; 45 phospho-kinase proteins profiled): 21 | GROα (CXCL1) secretion (RA-FLS cells [4]; p < 0.002): reduced | ICAM secretion (RA-FLS cells [4]; p < 0.03): reduced | G-CSF secretion (RA-FLS cells [4]; p < 0.04): reduced | MIP-1α/MIP-1β secretion (RA-FLS cells [4]; p = 0.11): modest change
